Ends that are not written are not given here.
Key:
[1] = tested on: 8 mm wide circular excisional skin injuries; test: Large (8 mm) excisional skin injury in adult mice; format: in vivo, mouse
Procedure: Anesthetized adult mice had 8 mm wide circular excisional skin injuries made by fine surgical scissors down to the underlying muscle in the dorsal mid line between the shoulder blades (i.e., as shown in (a) an (b). The boundary of the injury was demarcated by an 8 mm wide circular template cut in a plastic sheet. 100 μl of a solution of 30% pluronic gel containing either no (control) or dissolved ACT 1 peptide (SEQ ID NO:2) at a concentration of 100 μM was then applied to the excisional injuries. Control or ACT peptide containing gel was applied subsequently 24 hours after the initial application. No further applications of control and ACT peptide containing gel were made after the second application. […] Note that images of the same injury on the same animal are shown at the different time points during the healing time course. […] Skin biopsies of the entire wound site were taken from some of the mice 24 hours following the excisional injury in the experiment described in FIG. 6. Figures (a) and (b) show low magnification survey views of cross-sections from near the center of the wound of control and ACT peptide treated injuries respectively. The wound edge (marked by the small arrows), bounded by skin of normal histological appearance, can be seen in both cases. A black rectangle is placed over the images in (a) and (b) at the left hand wound edge. The histological structures within these two rectangles are shown at higher magnification in (c) and (d) for control and ACT peptide treated tissues, respectively. Of most interest is a “collar-like” tissue of aligned fibrous material (arrowed) projecting from basal parts of the injury to or toward the wound edge and exterior surface of injury. The aligned fibrous substrate has the appearance of being much more organized in the control injury (d) than in the ACT peptide treated injury (c). […] This is confirmed in (e) and (f) where regions of histological section within the black rectangles shown in (c) and (d) are respectively shown at higher magnification. The inflammatory cells studding the aligned fibrous substrate include mast cells, neutrophils and macrophages. These inflammatory cells occur at much higher density in the control injury than in the ACT peptide treated injury. […] At the end of the 14 day period in the experiment described in FIG. 6, skin biopsies of the entire excisional injury were taken and histological sections from these skin samples were H&E histochemically stained. Figures (a) and (b) show low magnification survey views of cross-sections from near the center of the injury of ACT peptide and control respectively. The wound edge (marked by the small arrows), bounded by skin of normal histological appearance, can be seen in both cases. A black rectangle is placed over the images in (a) and (b) near the center of each injury. The histological structures within these two rectangles are shown at higher magnification in (c) and (d) for the ACT peptide and control tissues respectively. It is evident that tissue within the ACT peptide treated injury locus has considerably more complexity. […] By comparison, re-epithelization of the injury surface is incomplete and there is no sign of regenerating hair follicles in the epithelium of the control injury (d). […] As with, the hair follicles this tissue complexity was regenerated by differentiation of stem cells. […]

[2] = tested on: 5 mm diameter excisional skin wounds; test: Small (5 mm) excisional skin wounds in adult mice, ACT 1 to ACT 5; format: in vivo, mouse
Procedure: Anesthetized adult mice had 2 small (5 mm diameter) excisional skin wounds made by fine surgical scissors on the neck and (upper) back. The boundaries of the injuries were demarcated by a 5 mm wide circular template cut in a plastic sheet. 50-60 μl of a solution of 20% pluronic gel containing either no (control) or one of the ACT peptides (ACT 2-SEQ ID NO: 1, ACT 1-SEQ ID NO:2, ACT 3-SEQ ID NO:3, ACT 4-SEQ ID NO:4, ACT 5-SEQ ID NO:5) dissolved at concentrations of 100 μM were then applied to the excisional injuries. Control or ACT peptide-containing gel was applied subsequently 24 hours after the initial application. No further applications of control and ACT peptide-containing gel were made after the second application. […] Note that the same wound on the same animal is shown at the different time points during the healing time course. Anesthetized adult mice had 2 small (5 mm diameter) excisional skin wounds made by fine surgical scissors on the neck and (upper) back. The boundaries of the injuries were demarcated by a 5 mm wide circular template cut in a plastic sheet. 50-60 μl of a solution of 30% pluronic gel containing either no (control) or one of the ACT peptides (ACT 2—SEQ ID NO:1, ACT 1—SEQ ID NO:2, ACT 3—SEQ ID NO:3, ACT 4—SEQ ID NO:4, ACT 5—SEQ ID NO:5) dissolved at concentrations of 100 μM were then applied to the excisional injuries. Control or ACT peptide-containing gels were applied subsequently 24 hours after the initial application. No further applications of control and ACT peptide-containing gel were made after the second application. […] Note that the same wound on the same animal is shown at the different time points during the healing time course. The area of open wound was measured during the time course using NIH image according to standard protocols on multiple (˜5 mice per control or treatment condition) adult mice. These individual area measurements were then normalized to (i.e., divided by) the average area measured for the control injuries for a given time point, multiplied by 100 to give a % of unclosed wound relative to the control and then plotted against time. A Mann-Whitney U-test was used to statistically assess the effects of ACT peptides over the time course. […] These treatments provided results with significant p values.

**Q.** With “RPRPDDLEI (not fully specified (N-terminus)) [ACT 1, carboxy-terminal 9 amino acids of human Cx43; amino terminus biotinylated in tests]” as the sequence, how does the “closure, inflammation, healing and scarring of injury” value ([1]; 100 μM in 30% pluronic gel, 100 μl, applied at 0 and 24 hours, 14 day time course, vs gel without peptide) read?
**A.** The value was “closed faster, was less inflamed in appearance, healed faster and scarred less”.

**Q.** What about the “re-epithelization of the injured surface” value ([1]; 100 μM, 14 days, H&E histology) of the same sequence?
**A.** The value was “re-epithelization of the injured surface is complete”.

**Q.** And the “regenerating hair follicles in the new epithelium” value ([1]; 100 μM, 14 days, H&E histology)?
**A.** Its value is “regenerating hair follicles can already be seen”.

**Q.** What about the “restoration of tissue structural complexity beneath the reformed epithelium” value ([1]; 100 μM, 14 days, H&E histology) of the same sequence?
**A.** The value was “considerable restoration of normal structural complexity”.

**Q.** And the “density of inflammatory cells studding the fibrous substrate at the wound edge” value ([1]; 100 μM, skin biopsy 24 hours after injury, H&E histology)?
**A.** Its value is “considerably lower density of inflammatory cells”.

**Q.** What about the “closure, inflammation, healing and scarring of injuries” value ([2]; 100 μM in pluronic gel, 50-60 μl, applied at 0 and 24 hours, 240 hour time course (10 days), vs gel without peptide) of the same sequence?
**A.** The value was “closed faster, were significantly less inflamed in appearance, healed faster and scarred less”.

**Q.** What about the “size of improvement in wound closure over the control, compared among peptides” value ([2]; 100 μM, over the time course) of the same sequence?
**A.** Its value is “most pronounced improvements over the control”.

**Q.** And the “wound closure rates (area of open wound as % of unclosed wound relative to the control)” value ([2]; 100 μM, ~5 mice per condition, Mann-Whitney U-test over the time course)?
**A.** Its value is “significantly improved wound closure rates”.

Source: patent publication US7888319B2, “Compositions and methods for promoting wound healing and tissue regeneration” (MUSC Foundation for Research Development, priority 2004, dated 2011)
